Values of other authors as cited in publication PMC6957711 (Journal of Alzheimer's Disease, 2020).

What was measured:
[1] = tested on: tau; details: in vitro
[2] = Phase III clinical studies

Row | Structure (SMILES) | tau fibril formation [1] | tau oligomer formation [1] | clinical endpoints [2]
1 | CN(C)c1ccc2nc3ccc(=[N+](C)C)cc-3sc2c1 [methylene blue] | inhibits | accelerates | 
2 | CN(C)c1ccc2c(c1)Sc1cc(N(C)C)ccc1N2.CS(=O)(=O)O.CS(=O)(=O)O [LMTX, Leuco-Methylthioninium Bis(Hydromethanesulphonate)] |  |  | failed to meet its clinical endpoints
